Key:
Format in all cases: biochemical
[1] = target: T1, Heterotetrameric CNGA2:A4:B1b channels (Rattus norvegicus, UniProt A0A8I5ZN27+Q00195+Q64359); assay: Patch-clamp activation of heterotetrameric olfactory CNGA2:A4:B1b channels, inside-out patches of Xenopus oocytes; conditions: inside-out patches, +10 mV
T1 construct: expressed in transfected cells; host or cells: Xenopus laevis oocytes injected with cRNA (CNGA2:CNGA4:CNGB1b at 2:1:1)
Protocol: First, the effect of the compounds on olfactory CNG channels with natural composition was tested. […] To determine the potency of the ligands, full concentration‐activation relationships were generated. These relationships were fitted with Equation 1 (Experimental Section), yielding the concentration of half maximum activation (EC 50) and the Hill coefficient (H a).
(§1) Molecular biology and heterologous expression of CNG and HCN channels: The subunits CNGA2 (accession No. AF126808), CNGA4 (accession no. U12623) and CNGB1b (accession no. AF068572) of rat olfactory channels as well as mouse HCN2 channels (NM008226) were subcloned in front of the T7 promoter of pGEMHEnew. The corresponding cRNAs were produced with the mMESSAGE mMACHINE T7 Kit (Ambion, Austin, TX, USA).
(§2) Oocytes at stages IV and V were injected with 50–130 ng cRNA encoding either CNGA2, CNGA2 : CNGA4 : CNGB1b (2 : 1 : 1 ratio) or HCN2 channels either manually or mediated by an injection robot (RoboInject®). The injected oocytes were incubated at 18 °C for up to 6 days in Barth's medium containing (in mM) 84 NaCl, 1 KCl, 2.4 NaHCO3, 0.82 MgSO4, 0.41 CaCl2, 0.33 Ca(NO3)2, 7.5 TRIS, cefuroxime (4.0 μg/mL) and penicillin/streptomycin (100 μg/mL), pH 7.4.
(§3) Electrophysiology: Macroscopic currents were recorded in inside‐out patches of the oocytes expressing hundreds to several thousand of the desired channels by using the patch‐clamp technique. The patch pipettes were pulled from quartz tubing (P‐2000, Sutter Instrument, Novato, USA) with an outer and inner diameter of 1.0 and 0.7 mm (VITROCOM, New Jersey, USA). The corresponding pipette resistance was 0.9–2.3 MΩ. The bath and pipette solution contained (in mM): 150 KCl, 1 EGTA, 20 HEPES (pH 7.4) for CNG channel measurements. For HCN channel measurements the bath solution contained (in mM): 100 KCl, 10 EGTA, 10 HEPES (pH 7.2) and the pipette (in mM) 120 KCl, 10 HEPES, 1 CaCl2 (pH 7.2). All experiments were performed at room temperature by using an Axopatch 200B amplifier (Axon Instruments, Foster City, CA, USA). Electrophysiology was controlled by the Patchmaster‐software (HEKA Elektronik Dr. Schulze GmbH, Lambrecht, Germany). The sampling rate was 5 kHz and the filter implemented in the amplifier (4‐pole Bessel) was set to 2 kHz. Measurements in HCN2 channels were started 3.5 minutes after patch excision, to minimize run down phenomena.18 The solutions with the different ligand concentrations to be studied were applied by a multi‐barrel device to the patches with a flow rate of 0.8 to 1.2 mL/min. The concentration of the fluorescent ligands was verified by UV/Vis spectroscopy.
(§4) where I is the actual current amplitude and I max the maximum current amplitude at saturating concentration of each cyclic nucleotide. EC 50 is the ligand concentration generating half maximum current and H a the respective Hill coefficient.

[2] = target: T2, Homotetrameric CNGA2 channels (Rattus norvegicus, UniProt Q00195); assay: Patch-clamp activation of homotetrameric CNGA2 channels, inside-out patches of Xenopus oocytes
T2 construct: expressed in transfected cells; host or cells: Xenopus laevis oocytes injected with CNGA2 cRNA
T2 sequence (Q00195 1-664): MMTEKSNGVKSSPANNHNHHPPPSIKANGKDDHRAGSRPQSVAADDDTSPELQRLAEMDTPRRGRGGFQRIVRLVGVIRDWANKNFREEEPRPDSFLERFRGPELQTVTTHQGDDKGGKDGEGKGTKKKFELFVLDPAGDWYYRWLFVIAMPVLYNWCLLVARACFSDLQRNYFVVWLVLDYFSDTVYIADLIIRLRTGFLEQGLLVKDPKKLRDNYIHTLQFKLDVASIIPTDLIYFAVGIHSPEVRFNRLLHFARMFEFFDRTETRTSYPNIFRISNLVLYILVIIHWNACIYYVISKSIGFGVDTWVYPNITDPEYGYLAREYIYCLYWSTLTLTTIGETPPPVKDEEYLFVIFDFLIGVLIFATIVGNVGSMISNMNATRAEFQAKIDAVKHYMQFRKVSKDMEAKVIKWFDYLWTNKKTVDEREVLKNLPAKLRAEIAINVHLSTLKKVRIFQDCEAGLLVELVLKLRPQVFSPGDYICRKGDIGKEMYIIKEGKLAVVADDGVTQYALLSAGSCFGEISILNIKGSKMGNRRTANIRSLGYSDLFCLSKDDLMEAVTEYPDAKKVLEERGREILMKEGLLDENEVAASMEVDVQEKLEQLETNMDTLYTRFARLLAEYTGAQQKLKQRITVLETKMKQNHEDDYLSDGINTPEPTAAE
Excerpt: Moreover, we studied the effect of the nucleotide derivatives on homotetrameric CNGA2 channels.
as §1, §2, §3, §4

[3] = target: T3, heterotetrameric olfactory CNG channels (Rattus norvegicus, UniProt A0A8I5ZN27+Q00195+Q64359); assay: Confocal patch-clamp fluorometry (cPCF): ligand binding and activation, heterotetrameric CNG channels; conditions: Figure 4A
T3 construct: expressed in transfected cells; host or cells: Xenopus laevis oocytes injected with cRNA (CNGA2:CNGA4:CNGB1b at 2:1:1)
T3 sequence (Q64359 whole entry, one chain of several): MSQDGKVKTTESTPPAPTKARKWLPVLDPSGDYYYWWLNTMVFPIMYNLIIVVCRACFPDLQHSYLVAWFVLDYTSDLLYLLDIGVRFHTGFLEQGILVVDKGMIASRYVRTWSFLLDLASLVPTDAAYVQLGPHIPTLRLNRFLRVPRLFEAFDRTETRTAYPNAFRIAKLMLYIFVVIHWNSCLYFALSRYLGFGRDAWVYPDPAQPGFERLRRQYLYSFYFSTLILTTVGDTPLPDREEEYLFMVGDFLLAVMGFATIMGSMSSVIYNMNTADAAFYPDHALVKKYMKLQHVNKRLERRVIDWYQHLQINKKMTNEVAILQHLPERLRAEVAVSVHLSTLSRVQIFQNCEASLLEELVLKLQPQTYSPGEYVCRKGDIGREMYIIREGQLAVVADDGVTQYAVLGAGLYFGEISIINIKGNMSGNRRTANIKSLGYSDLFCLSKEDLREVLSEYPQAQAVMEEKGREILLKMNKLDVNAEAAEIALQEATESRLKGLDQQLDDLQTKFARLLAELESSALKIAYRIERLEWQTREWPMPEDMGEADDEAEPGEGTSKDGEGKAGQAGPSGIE
T3 sequence (A0A8I5ZN27 1-858 isoform A0A8I5ZN27-2, one chain of several): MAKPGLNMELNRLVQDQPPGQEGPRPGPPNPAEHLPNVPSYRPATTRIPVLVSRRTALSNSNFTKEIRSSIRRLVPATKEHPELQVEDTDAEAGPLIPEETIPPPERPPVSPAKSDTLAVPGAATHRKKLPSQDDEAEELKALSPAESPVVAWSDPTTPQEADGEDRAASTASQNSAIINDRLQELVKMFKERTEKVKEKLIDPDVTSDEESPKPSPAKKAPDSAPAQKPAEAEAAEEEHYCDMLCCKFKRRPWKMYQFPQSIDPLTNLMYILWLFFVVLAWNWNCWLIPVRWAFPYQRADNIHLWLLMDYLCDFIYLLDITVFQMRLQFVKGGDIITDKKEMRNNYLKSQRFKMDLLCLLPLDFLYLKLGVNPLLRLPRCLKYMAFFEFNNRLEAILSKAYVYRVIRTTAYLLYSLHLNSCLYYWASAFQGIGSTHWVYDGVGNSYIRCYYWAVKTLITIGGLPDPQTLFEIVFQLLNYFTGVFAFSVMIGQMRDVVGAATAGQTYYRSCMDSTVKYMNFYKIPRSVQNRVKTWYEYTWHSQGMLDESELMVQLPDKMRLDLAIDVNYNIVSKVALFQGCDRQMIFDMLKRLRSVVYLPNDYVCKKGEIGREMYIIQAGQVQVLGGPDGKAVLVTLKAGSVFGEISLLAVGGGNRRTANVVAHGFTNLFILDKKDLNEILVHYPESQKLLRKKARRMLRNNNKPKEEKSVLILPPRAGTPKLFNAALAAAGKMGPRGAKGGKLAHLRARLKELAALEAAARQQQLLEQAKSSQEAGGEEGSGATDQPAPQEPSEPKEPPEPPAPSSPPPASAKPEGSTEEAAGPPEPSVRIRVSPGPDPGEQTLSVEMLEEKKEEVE
Excerpt: (§5) As expected from the above data, the binding profile of 10 was similar for the two different types of ion channels, yielding similar BC 50 and H b values.
(§6) Confocal patch‐clamp fluorometry: Ionic current and binding of the fluorescent ligand in macropatches were simultaneously measured by cPCF as described before.2a, 2b The patch pipettes were pulled from borosilicate glass tubing with an outer and inner diameter of 2.0 and 1.0 mm (Hilgenberg GmbH, Malsfeld, Germany). After fire polishing, the corresponding pipette resistance was 0.7–1.2 MΩ. The bath and pipette solution contained (in mM): 150 KCl, 1 EGTA, 5 HEPES (pH 7.4) for CNG channel measurements. To distinguish the fluorescence of the unbound fluorescent ligand from that of the bound fluorescent ligands, the fluorescent dye DY647 was added to the bath solution at a concentration of 5 μM. The fluorescent ligand and DY647 were excited at 543 and 633 nm, respectively, with a HeNe laser system and an AchroGate beam splitter. Fluorescence intensity from the bath and pipette solution were normalized on each other and the surplus of the green fluorescence of the patch dome with respect to the red fluorescence was used to quantify the bound ligands. The actual relative fluorescence (F) was normalized in each patch with respect to the maximum relative fluorescence (F max) at a saturating concentration of the fluorescent ligand. […]

[4] = target: T4, homotetrameric olfactory CNG channels (Rattus norvegicus, UniProt Q00195); assay: Confocal patch-clamp fluorometry (cPCF): ligand binding and activation, homotetrameric CNG channels; conditions: Figure 4B
T4 construct: expressed in transfected cells; host or cells: Xenopus laevis oocytes injected with CNGA2 cRNA
T4 sequence (Q00195 1-664): T2 sequence (Q00195 1-664)
Excerpt: as §5, §6

[5] = unit only in the axis title [10] (μM)

T1 sequence (Q64359 whole entry, one chain of several): as the sequence (Q64359 whole entry, one chain of several) above
T1 sequence (A0A8I5ZN27 1-858 isoform A0A8I5ZN27-2, one chain of several): as the sequence (A0A8I5ZN27 1-858 isoform A0A8I5ZN27-2, one chain of several) above

SMILES: CC1(C)C2=C3C=C4C5=[N+](CCC4OC3CCN2c2ccc(CC(=O)NCCCCCc3ccc(Sc4nc6c(=O)[nH]c(N)nc6n4[C@@H]4O[C@@H]6COP(=O)(O)O[C@H]6[C@H]4O)cc3)cc21)c1ccc(S(=O)(=O)[O-])cc1C5(C)C (stereo partly drawn) [Compound 10]
- H a (Hill coefficient of activation) [1]: 2.32±0.16
- EC50 ([1]; concentration of half maximum activation): 630 ± 20 nM
- EC 50 (in words) [2]: nanomolar range
- H a (Hill coefficient of activation) ([2]; inside-out patches): 4.03±0.12
- EC50 ([2]; inside-out patches, concentration of half maximum activation): 650 ± 10 nM
- Hb (Hill coefficient of binding, cPCF) [3]: 1.55
- EC50 [3, 5]: 1.03 ± 0.04 µM
- Hb (Hill coefficient of binding, cPCF) [4]: 1.43
- EC50 [4, 5]: 1.17 ± 0.07 µM

From paper PMC7497086, “Fluorophore‐Labeled Cyclic Nucleotides as Potent Agonists of Cyclic Nucleotide‐Regulated Ion Channels” (Chembiochem, 2020)
